# Assay results taken from patent US9101640B2, “Use of Danshensu, Notoginsenoside R1 or their combination in preparation of medicaments for preventing and treating diseases caused by microcirculation disorder” (Tasly Pharmaceutical Group Co., Ltd., priority 2009, dated 2015).
# “Also recorded” adds a separate entry of the source.
# Tested on: mesenteric venules
# Assay: Diameters of mesenteric venules after I/R
# Type: in vivo
# Settings: rat mesenteric I/R
# Method: The rats were anesthetized by intraperitoneal injection of pentobarbital sodium (30 mg/kg body weight (BW)). PE venous cannulas (#3) were cannulated into the right jugular of the rats and detained. The abdomen of each rat was incised in a length of 20-30 mm along the midline. The ileum near the ileocecal junctions was gently taken out and unfolded onto the object stage mounted with glass slides. The unfolded mesenteries were continuously dripped with Krebs-Ringer buffering solution at 37° C. The microcirculatory dynamics of the mesenteries was observed under white light (12V, 100 W) using an inverted biomicroscope (Diaphot TMD-2S, Nikon, Tokyo) placed in the thermostat at 37° C. Observation sites were selected under 20× object lens, and a video recording system with a time-displaying function was used to record what had been observed on S-VHS tape and preserved. […] Normal saline was administrated at 20 min before ischemia until the end of the observation by continuously intravenous drip via jugular at a dosage of 5 mg/kg/h. PE cannulas were used to ligate non-circulatory mesenteric arteries and veins, so as to observe the arteries and veins for 10 min, and then the ligation was lifted. Time was adjusted to zero and the microcirculatory dynamics under the same visual field was continuously observed for 60 min. DLA was administrated at 20 min before ischemia until the end of the observation by continuously intravenous drip via jugular at a dosage of 5 mg/kg/h. R1 was administrated at 20 min before ischemia until the end of the observation by continuously intravenous drip via jugular at a dosage of 5 mg/kg/h. The combination of DLA and R1 in a weight ratio of 4:1 was administrated at 20 min before ischemia until the end of the observation by continuously intravenous drip via jugular at a dosage of 5 mg/kg/h. The combination of DLA and R1 in a weight ratio of 1:1 was administrated at 20 min before ischemia until the end of the observation by continuously intravenous drip via jugular at a dosage of 5 mg/kg/h. […] Wherein, 6 rats in each group were taken out, these rats were used for observing the following aspects: the venular diameters; leukocytes rolling, adhesion, and emigration and DHR fluorescence intensities of the venular walls. […] Microcirculatory dynamics was continuously recorded using an inverted biomicroscope […] recording system (CC-090, Flovel, Tokyo) and SIT fluorescent camera (C-2400-08, Hamamatsu Photonics, Hamamatsu). 3 sites of the mesenteric venules were measured using Image-Pro Plus 5.0 software from the replayed CD records at the following time points: before ischemia and 1 min, 10 min, 20 min, 30 min, 40 min, 50 min and 60 min after the beginning of the reperfusion. The average diameters were calculated.
SMILES,"effect on the diameters of the mesenteric venules after reperfusion (post-administration, 5 mg/kg/h continuous i.v. drip from 20 min after ischemia (DLA: 10 min after I/R))","effect on the diameters of the mesenteric venules after reperfusion (pre-administration, 5 mg/kg/h continuous i.v. drip from 20 min before ischemia, 60 min reperfusion)","effect on the diameters of the mesenteric venules after reperfusion (post-administration, 5 mg/kg/h continuous i.v. drip from 20 min after ischemia (DLA: 10 min after I/R), 5 mg/kg)","effect on the diameters of the mesenteric venules after reperfusion (pre-administration, 5 mg/kg/h continuous i.v. drip from 20 min before ischemia, 60 min reperfusion, 5 mg/kg)"
"O=C(O)C(O)Cc1ccc(O)c(O)c1 (stereo not shown) [DLA, 3,4-dihydroxyphenyl lactic acid]",did not cause the significant changes,did not cause the significant changes,–,–
"CC(C)=CCC[C@](C)(O[C@@H]1O[C@H](CO)[C@@H](O)[C@H](O)[C@H]1O)[C@H]1CC[C@]2(C)[C@@H]1[C@H](O)C[C@@H]1[C@@]3(C)CC[C@H](O)C(C)(C)[C@@H]3[C@@H](O[C@@H]3O[C@H](CO)[C@@H](O)[C@H](O)[C@H]3O[C@@H]3OC[C@@H](O)[C@H](O)[C@H]3O)C[C@]12C [R1, Notoginsenoside R1]",–,–,did not cause the significant changes; also recorded: have no significant inhibitory effects,did not cause the significant changes; also recorded: have no significant inhibitory effects
